Results on five compounds are retold here after publication PMC9095593, “On Methods for the Measurement of the Apelin Receptor Ligand Apelin” (Scientific Reports, 2022).

Like-named read-outs stand apart in the source and are kept apart here. Where no end group is shown, it is not given here.

The nature of data set [1]: Stability of spiked synthetic peptides in plasma according to the preanalytical condition (immediately vs 60 min at room temperature). Conditions: HPLC-MS/MS; for Degradation after one hour at room temperature: spiked synthetic peptide; for Appearance of apelin-pyr-13 after spiking synthetic apelin-13: after 60 min; for Degradation at the immediate measurement in non-acidified conditions: non-acidified plasma, measured immediately after spiking.
Description: We aimed to minimalize degradation after sampling with a preanalytical protocol summarized in Fig. 3, including immediate cooling and rapid processing of samples. […] However, acidification can be applied only after separation by centrifugation of whole blood into a plasma and a cell compartment, because acidification of whole blood would lead to hemolysis and coagulation, rendering the blood samples unsuitable for further measurements. Therefore, we used protease inhibitor cocktail-containing K2EDTA-coated P100 blood tubes and a mechanical plasma separator (366422 BD Biosciences, San Jose, CA, USA)[19]. The aim of the protease inhibitor cocktail is to inactivate proteolytic degradation by enzymes present in whole blood; the mechanical separator prevent contact with cell-bound enzymes, both theoretically limiting enzymatic degradation of apelin during the several minutes between blood collection in the tube and completed plasma separation and acidification.
Figure 3 Overview of preanalytical conditions. Samples were immediately cooled on ice and processed within 1 h. Both standard K2EDTA tubes and P100 prechilled tubes containing a protease inhibitor cocktail and mechanical separator were used. The standard K2EDTA was centrifuged for 10 min 1300 × g at 4 °C, while the P100 tube was centrifuged for 20 min 2500 × g at 4 °C, according to the manufacturers’ instructions. After separation, plasma was untreated or acidified to either pH 2.5 or 4.5 by adding the plasma to low protein-binding tubes pre-filled with either phosphoric acid or formic acid. The plasma samples were stored directly at − 20 °C and transferred within 4 h at − 80 °C.
Spiking of individual peptides was performed on plasma collected in K2EDTA tubes, stored either non-acidified, or acidified to pH 4.5 or pH 2.5 and on plasma collected in P100 tubes, stored either non-acidified, or acidified to pH 4.5 and pH 2.5. The samples were measured both immediately and after 60 min at room temperature, each sample was measured 3 times.

The conditions of data set [2]: cited from earlier work. The source says:
However, acidification can be appl ...

Data set [3] is described as follows: Influence of cooling on ice and P100 protease inhibitor cocktail on peptide stability. The following applies: HPLC-MS/MS, measured in triple; for Influence of the P100 tube (protease inhibitor cocktail) on stability: P100 vs K2EDTA, immediately, 30 and 60 min on ice or at room temperature; for Effect of cooling with ice on stability: spiked on K2EDTA and P100 plasma, measured immediately and after 30 and 60 min on ice or at room temperature.
Description: The samples were measured immediately, and after 30 and 60 min on ice or at room temperature (Fig. 6). All samples were measured in triple.
The samples were measured immediately, or after 30 and 60 min on ice or at room temperature.

For another data set, the system named is Kallikrein. Conditions: cited from earlier work. The source says:
(§1) Table 1 Enzymatic processing of apelin. | column: Conversion

A further data set deals with Prolyl carboxypeptidase. The following applies: cited from earlier work.
Description: as §1

Data set [4] deals with G-protein-coupled apelin receptor (AR). More on the design: method as in PMID 23872001, PMID 18272843, PMID 29357134. Conditions: cited from earlier work. The text has this: Apelin is expressed as a 77–amino acid precursor, and the C-terminal 17 residues are completely conserved in mammalians. Enzymatic processing (overviewed in Table 1) results in several active C-terminal fragments named apelin-n, specifying that a given isoform has “n” amino acids, all sharing the same 12 C-terminal residues that contain the receptor-binding site (Fig. 1).

A further data set relates to Furin (PCSK3). Conditions: cited from earlier work.
Description: as §1

The mark [5] stands for this setting: K2EDTA plasma acidified to pH 2.5, immediately and after 60 min at room temperature, measured 3 times.
Where [6] appears, read: K2EDTA plasma acidified to pH 4.5, immediately and after 60 min at room temperature, measured 3 times.
Setting [7] is: K2EDTA plasma, non-acidified, measured immediately and after 60 min at room temperature, each sample measured 3 times.
[8] abbreviates: P100 (protease inhibitor cocktail) plasma, non-acidified, immediately and after 60 min at room temperature, measured 3 times.
[9] abbreviates: P100 plasma acidified to pH 2.5, immediately and after 60 min at room temperature, measured 3 times.
[10] abbreviates: P100 plasma acidified to pH 4.5, immediately and after 60 min at room temperature, measured 3 times.
Setting [11] is: previously described plasma acidification step to pH 4.5.

Consider `CSCC[C@H](NC(=O)[C@@H]1CCCN1C(=O)CNC(=O)[C@H](CCCCN)NC(=O)[C@H](Cc1cnc[nH]1)NC(=O)[C@H](CO)NC(=O)[C@H](CC(C)C)NC(=O)[C@H](CCCNC(=N)N)NC(=O)[C@@H]1CCCN1C(=O)[C@H](CCCNC(=N)N)NC(=O)[C@@H](N)CCC(N)=O)C(=O)N1CCC[C@H]1C(=O)N[C@@H](Cc1ccccc1)C(=O)O` [Apelin-13], for which the “Degradation after one hour at room temperature” value (“Degradation after one hour” for short) in data set [1] (setting [5]) is listed as “minor degradation”; in data set [1] (setting [6]) it was “minor degradation”; in data set [1] (setting [7]), “rapid degradation”; in data set [1] (setting [8]), “rapid degradation”; in data set [1] (setting [9]), “minor degradation”; in data set [1] (setting [10]) it was “minor degradation”. Also, the entries for the “Appearance of apelin-pyr-13 after spiking synthetic apelin-13” value in data set [1] (K2EDTA plasma non-acidified), in data set [1] (K2EDTA plasma pH 2.5) and in data set [1] (K2EDTA plasma pH 4.5) were “minimal”, about 25% and about 3 ×, respectively. Moreover, in data set [1], the “Degradation at the immediate measurement in non-acidified conditions” value is reported as “immediate degradation”. Besides, the “Stability in plasma acidified to pH 4.5” value in data set [2] (setting [11]) is given as “provide stability”. Further, the “Influence of the P100 tube (protease inhibitor cocktail) on stability” value in data set [3] is “small added value”. Moreover, the “Effect of cooling with ice on stability” value in data set [3] is “cooling with ice increases stability”.

As to “NGPGPWQGGRRKFRRQRPRLSHKGPMPF [Apelin-28]”, the “Influence of pH on stability in K2EDTA plasma” value in data set [1] (K2EDTA plasma non-acidified vs pH 4.5 vs pH 2.5, 60 min at room temperature) was “slightly better stability in K2EDTA plasma at pH 4.5 and pH 2.5 than in non-acidified plasma”.

Turning to `CSCC[C@H](NC(=O)[C@@H]1CCCN1C(=O)CNC(=O)[C@H](CCCCN)NC(=O)[C@H](Cc1c[nH]cn1)NC(=O)[C@H](CO)NC(=O)[C@H](CC(C)C)NC(=O)[C@H](CCCNC(=N)N)NC(=O)[C@@H]1CCCN1C(=O)[C@@H](N)CCCNC(=N)N)C(=O)N1CCC[C@H]1C(=O)N[C@@H](Cc1ccccc1)C(=O)O` [Apelin-12], the “Degradation at the immediate measurement in non-acidified conditions” value in data set [1] is reported as “immediate degradation”. In addition, in data set [1] (plasma non-acidified, pH 4.5 or pH 2.5, 60 min at room temperature), the “Storage pH giving the best stability in plasma” value is “most stable at pH 2.5”. The “Effect of cooling with ice on stability” value in data set [3] is recorded as “cooling with ice increases stability”.

Regarding `CSCC[C@H](NC(=O)[C@@H]1CCCN1C(=O)CNC(=O)[C@H](CCCCN)NC(=O)[C@H](Cc1cnc[nH]1)NC(=O)[C@H](CO)NC(=O)[C@H](CC(C)C)NC(=O)[C@H](CCCNC(=N)N)NC(=O)[C@@H]1CCCN1C(=O)[C@H](CCCNC(=N)N)NC(=O)[C@H](CCC(N)=O)NC(=O)[C@H](CCCNC(=N)N)NC(=O)[C@H](CCCNC(=N)N)NC(=O)[C@H](Cc1ccccc1)NC(=O)[C@@H](N)CCCCN)C(=O)N1CCC[C@H]1C(=O)N[C@@H](Cc1ccccc1)C(=O)O` [Apelin-17], the “Degradation after one hour” value is, setting by setting: (pH 2.5) “minor degradation”; (pH 4.5) “minor degradation”. For the same compound, the “Stability in plasma acidified to pH 4.5” value in data set [2] (pH 4.5) is given as “provide stability”. Also, in the data set on Kallikrein, the Cleavage by kallikrein entry is on record as “Cleaves the 3N-terminal amino acids of apelin-17”. In the data set on Prolyl carboxypeptidase, the “Cleavage by prolyl carboxypeptidase” value is “Cleaves apelin 36, 17 and pyr-apelin 13”.

With “Apelin-36: synthetic apelin isoform of 36 amino acids, purchased from CPC Scientific / Phoenix Pharmaceuticals (LVQPRGSRNGPGPWQGGRRKFRRQRPRLSHKGPMPF; Apelin-36; UniProt Q9ULZ1 42-77, looked up)”, in data set [4], the “Activation of the apelin receptor (AR)” value was “can activate the AR”. The “Degradation after one hour” value was “limited degradation” in data set [1] (setting [5]); “limited degradation” in data set [1] (setting [6]); “limited degradation” in data set [1] (setting [7]); “higher degradation” in data set [1] (setting [8]); “limited degradation” in data set [1] (setting [9]); “higher degradation” in data set [1] (setting [10]). The “Stability in plasma acidified to pH 4.5” value in data set [2] (setting [11]) is on record as “provide stability”. Besides, the “Conversion by furin (PCSK3)” value with Furin (PCSK3) is on record as “directly to apelin 13”. The “Cleavage by prolyl carboxypeptidase” value in the data set on Prolyl carboxypeptidase (similar to ACE-2 effect) is “Cleaves apelin 36, 17 and pyr-apelin 13”. In addition, the “Influence of the P100 tube (protease inhibitor cocktail) on stability” value in data set [3] is on record as “negative influence”. For the same compound, the “Effect of cooling with ice on stability” value in data set [3] is “cooling with ice increases stability”.
